This passage reports IC50 results from US20040209914A1, “Aromatic sulfone hydroxamic acids and their use as protease inhibitors” (priority 2000, published 2004).

What all share (test): biochemical
One experiment has as its target T1, Recombinant human MMP-1 (Homo sapiens, UniProt P03956).
T1 construct: made in house; host or cells: transfected HT-1080 cells
T1 sequence (P03956 100-469): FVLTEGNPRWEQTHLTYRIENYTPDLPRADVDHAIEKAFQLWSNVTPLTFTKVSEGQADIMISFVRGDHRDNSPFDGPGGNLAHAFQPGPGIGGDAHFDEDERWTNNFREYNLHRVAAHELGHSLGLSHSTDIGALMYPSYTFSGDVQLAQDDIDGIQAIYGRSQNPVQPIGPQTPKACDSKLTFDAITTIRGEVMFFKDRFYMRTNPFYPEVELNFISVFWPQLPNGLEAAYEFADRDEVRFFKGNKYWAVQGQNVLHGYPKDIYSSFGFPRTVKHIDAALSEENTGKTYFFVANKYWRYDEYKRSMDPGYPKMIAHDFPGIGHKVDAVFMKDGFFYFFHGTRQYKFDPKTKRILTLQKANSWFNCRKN
The conditions noted are these: fluorogenic MCA-peptide substrate, pH 7.5, room temperature. The procedure: (§1) Recombinant human MMP-1, MMP-2, MMP-9, MMP-13, and were used in this assay. These enzymes were prepared in the Assignee's es following usual laboratory procedures. Specifics for preparing and e enzymes can be found in the scientific literature describing these See, e.g., Enzyme Nomenclature (Academic Press, San Diego, Calif., d the citations therein).
The MMP-1 was obtained from MMP-1 expressing transfected HT-1080 cells provided by Dr. Harold Welgus of Washington University in St. Louis, Mo. The MMP-1 was activated using 4-aminophenylmercuric acetate (APMA), and then purified over a hydroxamic acid column.
(§2) The enzyme substrate was a methoxycoumarin-containing polypeptide having the following sequence:
(§3) MCA-ProLeuGlyLeuDpaAlaArgNH2
(§4) Here, “MCA” is methoxycoumarin and “Dpa” is 3-(2,4-dinitrophenyl)-L-2,3-diaminopropionyl alanine.
(§5) These solutions were then compared to a control (which contained equal amount of DMSO/buffer solution, but no hydroxamate compound) using Microfluor™ White Plates (Dynatech, Chantilly, Va.). Specifically, The MMPs were activated with APMA or trypsin. […] The control likewise was incubated at room temperature in separate plates with the MMP and 4 uM of the MMP substrate. […] Inhibition was measured as a reduction in fluorescent intensity as a function of inhibitor concentration using a Perkin Elmer (Norwalk, Conn.) L550 plate reader. The IC50's were then calculated from these measurements.

The target in the next experiment is T2, Recombinant human MMP-2 (Homo sapiens, UniProt P08253).
T2 construct: made in house
T2 sequence (P08253 110-660): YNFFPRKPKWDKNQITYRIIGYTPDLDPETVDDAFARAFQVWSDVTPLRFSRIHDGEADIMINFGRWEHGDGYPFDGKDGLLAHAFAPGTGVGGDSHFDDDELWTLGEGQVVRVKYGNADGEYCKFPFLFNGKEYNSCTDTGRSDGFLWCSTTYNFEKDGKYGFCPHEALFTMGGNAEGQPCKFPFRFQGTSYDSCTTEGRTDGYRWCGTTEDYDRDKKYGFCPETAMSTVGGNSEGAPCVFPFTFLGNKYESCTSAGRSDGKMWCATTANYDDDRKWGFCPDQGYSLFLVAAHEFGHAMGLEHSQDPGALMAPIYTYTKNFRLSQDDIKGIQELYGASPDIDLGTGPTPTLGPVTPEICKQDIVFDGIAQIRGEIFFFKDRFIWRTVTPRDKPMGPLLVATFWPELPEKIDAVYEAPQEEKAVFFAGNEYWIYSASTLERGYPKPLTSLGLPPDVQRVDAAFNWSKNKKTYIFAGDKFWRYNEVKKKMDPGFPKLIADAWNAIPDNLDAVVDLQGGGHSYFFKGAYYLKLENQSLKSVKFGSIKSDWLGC
The conditions noted are these: fluorogenic MCA-peptide substrate, pH 7.5, room temperature. As for the experimental part:
as §1
The MMP-2 was obtained from MMP-2 expressing transfected cells provided by Dr. Gregory Goldberg of Washington University.
as §2, §3, §4, §5

In a further experiment the target is T3, Recombinant human MMP-13 (Homo sapiens, UniProt P45452).
T3 construct: made in house; host or cells: baculovirus / insect cells
The conditions noted are these: fluorogenic MCA-peptide substrate, pH 7.5, room temperature; read-out: MMP-13 IC50. As for the experimental part:
as §1
The expressed proenzyme was first purified over a heparin agarose column, and then over a chelating zinc chloride column. The proenzyme was then activated by APMA for use in the assay.
as §2, §3, §4, §5

In general, IC50 refers to the concentration that gives 50% inhibition.

SMILES strings stand for the structures. Read-outs that look alike come from different tables or passages of the source.

Turning to `CCN1CCC(C(=O)NO)(S(=O)(=O)c2ccc(N3CCC(C(=O)c4ccc(CC5CCC5)cc4)CC3)cc2)CC1` [Example 195], the figures for the IC50 on Recombinant human MMP-1, at Recombinant human MMP-2 (read-out: MMP-2 IC50) and at Recombinant human MMP-13 were more than 10000 nM, 463 nM and 0.3 nM, respectively.
For `C#CCN1CCC(C(=O)NO)(S(=O)(=O)c2ccc(N3CCC(C(=O)c4ccc5ccccc5c4)CC3)cc2)CC1` [Example 175] the same measures were more than 10000 nM, 137 nM and 0.7 nM.
The matching figures for `CCN1CCC(C(=O)NO)(S(=O)(=O)c2ccc(N3CCC(C(=O)c4ccc(CC5CC5)cc4)CC3)cc2)CC1` [Example 254]: more than 10000 nM, 132 nM and 1.3 nM.
The matching figures for `CCN1CCC(C(=O)NO)(S(=O)(=O)c2ccc(N3CCC(C(=O)c4ccc(Cl)c(C)c4)CC3)cc2)CC1` [Example 221]: more than 10000 nM, 301 nM and 3.4 nM.
Consider `CCN1CCC(C(=O)NO)(S(=O)(=O)c2ccc(N3CCC(C(=O)c4ccc(CCC5CCCC5)cc4)CC3)cc2)CC1` [Example 237], for which the half-maximal inhibitory concentration (IC50) at Recombinant human MMP-1 was more than 10000 nM; at Recombinant human MMP-2 (read-out: MMP-2 IC50), 1910 nM; at Recombinant human MMP-13, 2.1 nM.
The matching figures for `O=C(C1CCN(c2ccc(S(=O)(=O)C3(C(=O)NO)CCOCC3)cc2)CC1)N1CCN(c2ccccc2Cl)CC1` [Example 4]: more than 10000 nM, 2900 nM and 15.6 nM.
For `COc1ccccc1N1CCN(C(=O)C2CCN(c3ccc(S(=O)(=O)C4(C(=O)NO)CCOCC4)cc3)CC2)CC1` [Example 7] the same measures were more than 10000 nM, 4500 nM and 18 nM.
The matching figures for `O=C(c1ccc(CC2CCC2)cc1)C1CCN(c2ccc(S(=O)(=O)C3(C(=O)NO)CCN(C4CC4)CC3)cc2)CC1` [Example 196]: more than 10000 nM, 750 nM and 1 nM.
As for `Cc1cc(C(=O)C2CCN(c3ccc(S(=O)(=O)C4(C(=O)NO)CCOCC4)cc3)CC2)ccc1OC(C)C` [Example 376], the IC50 is more than 10000 nM at Recombinant human MMP-1, 2190 nM on Recombinant human MMP-2 (read-out: MMP-2 IC50) and 6.4 nM on Recombinant human MMP-13.
The matching figures for `C#CCN1CCC(C(=O)NO)(S(=O)(=O)c2ccc(N3CCC(C(=O)c4ccc(OC)cc4)CC3)cc2)CC1` [Example 151]: more than 10000 nM, 128 nM and 1.3 nM.
For `Cc1ccc(C(=O)C2CCN(c3ccc(S(=O)(=O)C4(C(=O)NO)CCN(S(C)(=O)=O)CC4)cc3)CC2)cc1C` [Example 164] the same measures were more than 10000 nM, 942 nM and 5.4 nM.
For `O=C(NO)C1(S(=O)(=O)c2ccc(N3CCC(Sc4nc5ccccc5s4)CC3)cc2)CCN(C2CC2)CC1` [Example 185] the same measures were more than 10000 nM, 87.4 nM and 5.1 nM.
Consider `CCN1CCC(C(=O)NO)(S(=O)(=O)c2ccc(N3CCC(C(=O)c4ccc(CCCC(C)O)cc4)CC3)cc2)CC1` (stereo not drawn) [Example 247], for which the concentration for half-maximal inhibition (IC50) at Recombinant human MMP-1 is more than 10000 nM; at Recombinant human MMP-2 (read-out: MMP-2 IC50), 111 nM; on Recombinant human MMP-13, 0.3 nM.
The matching figures for `COCCN1CCC(C(=O)NO)(S(=O)(=O)c2ccc(N3CCC(C(=O)c4ccc(COCC(C)C)s4)CC3)cc2)CC1` [Example 243]: more than 10000 nM, 56 nM and 0.3 nM.
The matching figures for `O=C(c1ccc(CCC2CCCC2)cc1)C1CCN(c2ccc(S(=O)(=O)C3(C(=O)NO)CCN(C4CC4)CC3)cc2)CC1` [Example 199]: more than 10000 nM, 3390 nM and 11.7 nM.
For `CCN1CCC(C(=O)NO)(S(=O)(=O)c2ccc(N3CCC(C(=O)c4ccc(OC)cc4)CC3)cc2)CC1` [Example 194] the same measures were more than 10000 nM, 1230 nM and 9.1 nM.
Consider `COCCN1CCC(C(=O)NO)(S(=O)(=O)c2ccc(N3CCC(C(=O)c4ccc(OC(C)C)c(C)c4)CC3)cc2)CC1` [Example 191], for which the IC50 at Recombinant human MMP-1 was more than 10000 nM; at Recombinant human MMP-2 (read-out: MMP-2 IC50), 2290 nM; at Recombinant human MMP-13 it was 3 nM.
The matching figures for `C=CCN1CCC(C(=O)NO)(S(=O)(=O)c2ccc(N3CCC(C(=O)c4ccc(C)c(C)c4)CC3)cc2)CC1` [Example 158]: more than 10000 nM, 218 nM and 2.4 nM.
For `O=C(c1ccc(CC2CCCC2)cc1)C1CCN(c2ccc(S(=O)(=O)C3(C(=O)NO)CCN(C4CC4)CC3)cc2)CC1` [Example 197] the same measures were more than 10000 nM, 1720 nM and 1.4 nM.
For `O=C(c1ccc(CC2CCCC2)cc1)C1CCN(c2ccc(S(=O)(=O)C3(C(=O)NO)CCOCC3)cc2)CC1` [Example 379] the same measures were more than 10000 nM, 1270 nM and 0.6 nM.
Regarding `COCCN1CCC(C(=O)NO)(S(=O)(=O)c2ccc(N3CCC(C(=O)c4ccc(CCC5CCCC5)cc4)CC3)cc2)CC1` [Example 204], the values for the half-maximal inhibitory concentration (IC50) at Recombinant human MMP-1, on Recombinant human MMP-2 (read-out: MMP-2 IC50) and at Recombinant human MMP-13 were more than 10000 nM, 1050 nM and 0.2 nM, respectively.
For `CCN1CCC(C(=O)NO)(S(=O)(=O)c2ccc(N3CCC(C(=O)c4ccc(C)cc4)CC3)cc2)CC1` [Example 208] the same measures were more than 10000 nM, 19.6 nM and 0.1 nM.
For `CCC(C)Cc1ccc(C(=O)C2CCN(c3ccc(S(=O)(=O)C4(C(=O)NO)CCOCC4)cc3)CC2)cc1` (stereo not drawn) [Example 382] the same measures were more than 10000 nM, 1310 nM and 0.3 nM.
The matching figures for `C#CCN1CCC(C(=O)NO)(S(=O)(=O)c2ccc(N3CCC(C(=O)c4ccc(Cl)cc4)CC3)cc2)CC1` [Example 153]: more than 10000 nM, 30.6 nM and 0.2 nM.
On to `C#CCN1CCC(C(=O)NO)(S(=O)(=O)c2ccc(N3CCC(C(=O)c4ccc(C)cc4)CC3)cc2)CC1` [Example 152], for which the IC50 at Recombinant human MMP-1 is more than 10000 nM; at Recombinant human MMP-2 (read-out: MMP-2 IC50) it was 56.3 nM; at Recombinant human MMP-13 it was 0.6 nM.
For `CCN1CCC(C(=O)NO)(S(=O)(=O)c2ccc(N3CCC(C(=O)c4ccc(CC(C)CO)cc4)CC3)cc2)CC1` (stereo not drawn) [Example 235] the same measures were more than 10000 nM, 118 nM and 0.8 nM.
For `C=CCN1CCN(C(=O)C2CCN(c3ccc(S(=O)(=O)C4(C(=O)NO)CCOCC4)cc3)CC2)CC1` [Example 34] the same measures were more than 10000 nM, 3700 nM and 19.3 nM.
With `CC(=O)c1ccc(N2CCN(C(=O)C3CCN(c4ccc(S(=O)(=O)C5(C(=O)NO)CCOCC5)cc4)CC3)CC2)cc1` [Example 24], the concentration for half-maximal inhibition (IC50) at Recombinant human MMP-1 is more than 10000 nM; at Recombinant human MMP-2 (MMP-2 IC50(nM)) it was 700 nM; on Recombinant human MMP-13, 6.7 nM.
Regarding `C#CCN1CCC(C(=O)NO)(S(=O)(=O)c2ccc(N3CCC(C(=O)c4cccc(OC)c4)CC3)cc2)CC1` [Example 155], the IC50 at Recombinant human MMP-1 is more than 10000 nM; at Recombinant human MMP-2 (read-out: MMP-2 IC50), 43.8 nM; on Recombinant human MMP-13, 1.4 nM.
The matching figures for `COCCN1CCC(C(=O)NO)(S(=O)(=O)c2ccc(N3CCC(C(=O)c4ccc(OC)cc4)CC3)cc2)CC1` [Example 156]: more than 10000 nM, 1340 nM and 0.7 nM.
